# Measurements reported in patent US20230123334A1, “AMINO LIPID COMPOUND, PREPARATION METHOD THEREFOR, AND APPLICATION THEREOF” (SHENZHEN SHENXIN BIOTECHNOLOGY CO., LTD., priority 2020, published 2023).
# System: HEK293 cells
# Assay: Preliminary screening as DNA vectors, GFP transfection of HEK293 cells
# Assay type: cell-based
# Conditions: HEK293 cells; lipid/DOPE liposome with 75 ng plasmid DNA (psin-EGFP-IRES-Puro); number of cells expressing GFP divided by total number of nuclei (Hoechst)
# In short: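 Lipid + DOPE liposomes (NaOAc, pH 5.6) complexed w/ 75 ng psin-EGFP-IRES-Puro, 30 min RT; added to 3-5×10^4 HEK293/well, 37° C. Hoechst 0.2 μg/mL at 20-24 h, imaged after further 20-24 h. Efficiency = GFP+ cells / total nuclei.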
row,Compound,Absolute DNA transfection efficiency in HEK293 cells
1,CCCCCCCCCCCNc1nc(NCCCCCCCC)nc(NCCCN2CCN(C)CC2)n1 [Compound N8N11D9],0.0%
2,CCCCCCCCCCCNc1nc(NCCCCCCCC)nc(NCC2CCN(C)CC2)n1 [Compound N8N11D10],0.3%
3,CCCCCCCCCCCCNc1nc(NCCCCCCCC)nc(NCCN(C)C)n1 [Compound N8N12D1],0.6%
4,CCCCCCCCCCCCNc1nc(NCCCCCCCC)nc(NCCN2CCOCC2)n1 [Compound N8N12D2],0.0%
5,CCCCCCCCCCCCNc1nc(NCCCCCCCC)nc(NCCN2CCCC2)n1 [Compound N8N12D3],2.4%
6,CCCCCCCCCCCCNc1nc(NCCCCCCCC)nc(NCCN2CCCCC2)n1 [Compound N8N12D4],0.0%
7,CCCCCCCCCCCCNc1nc(NCCCCCCCC)nc(NCCN2CCN(C)CC2)n1 [Compound N8N12D5],0.6%
8,CCCCCCCCCCCCNc1nc(NCCCCCCCC)nc(NCCCN(C)C)n1 [Compound N8N12D6],0.4%
9,CCCCCCCCCCCCNc1nc(NCCCCCCCC)nc(NCCN(CC)CC)n1 [Compound N8N12D7],0.0%
10,CCCCCCCCCCCCNc1nc(NCCCCCCCC)nc(NCCCN2CCOCC2)n1 [Compound N8N12D8],0.0%
11,CCCCCCCCCCCCNc1nc(NCCCCCCCC)nc(NCCCN2CCN(C)CC2)n1 [Compound N8N12D9],0.0%
12,CCCCCCCCCCCCNc1nc(NCCCCCCCC)nc(NCC2CCN(C)CC2)n1 [Compound N8N12D10],0.7%
13,CCCCCCCCCCCCCNc1nc(NCCCCCCCC)nc(NCCN(C)C)n1 [Compound N8N13D1],2.2%
14,CCCCCCCCCCCCCNc1nc(NCCCCCCCC)nc(NCCN2CCOCC2)n1 [Compound N8N13D2],0.0%
15,CCCCCCCCCCCCCNc1nc(NCCCCCCCC)nc(NCCN2CCCC2)n1 [Compound N8N13D3],0.9%
16,CCCCCCCCCCCCCNc1nc(NCCCCCCCC)nc(NCCN2CCCCC2)n1 [Compound N8N13D4],0.7%
17,CCCCCCCCCCCCCNc1nc(NCCCCCCCC)nc(NCCN2CCN(C)CC2)n1 [Compound N8N13D5],0.0%
18,CCCCCCCCCCCCCNc1nc(NCCCCCCCC)nc(NCCCN(C)C)n1 [Compound N8N13D6],0.0%
19,CCCCCCCCCCCCCNc1nc(NCCCCCCCC)nc(NCCN(CC)CC)n1 [Compound N8N13D7],0.0%
20,CCCCCCCCCCCCCNc1nc(NCCCCCCCC)nc(NCCCN2CCOCC2)n1 [Compound N8N13D8],0.0%
21,CCCCCCCCCCCCCNc1nc(NCCCCCCCC)nc(NCCCN2CCN(C)CC2)n1 [Compound N8N13D9],1.0%
22,CCCCCCCCCCCCCNc1nc(NCCCCCCCC)nc(NCC2CCN(C)CC2)n1 [Compound N8N13D10],2.1%

row,Compound,Absolute DNA transfection efficiency in HEK293 cells
1,CCCCCCCCCCCCCCCNc1nc(NCCCCCCCC)nc(NCCN(C)C)n1 [Compound N8N15D1],1.5%
2,CCCCCCCCCCCCCCCNc1nc(NCCCCCCCC)nc(NCCN2CCOCC2)n1 [Compound N8N15D2],0.0%
3,CCCCCCCCCCCCCCCNc1nc(NCCCCCCCC)nc(NCCN2CCCC2)n1 [Compound N8N15D3],1.5%
4,CCCCCCCCCCCCCCCNc1nc(NCCCCCCCC)nc(NCCN2CCCCC2)n1 [Compound N8N15D4],0.5%
5,CCCCCCCCCCCCCCCNc1nc(NCCCCCCCC)nc(NCCN2CCN(C)CC2)n1 [Compound N8N15D5],0.6%
6,CCCCCCCCCCCCCCCNc1nc(NCCCCCCCC)nc(NCCCN(C)C)n1 [Compound N8N15D6],1.3%
7,CCCCCCCCCCCCCCCNc1nc(NCCCCCCCC)nc(NCCN(CC)CC)n1 [Compound N8N15D7],0.0%
8,CCCCCCCCCCCCCCCNc1nc(NCCCCCCCC)nc(NCCCN2CCOCC2)n1 [Compound N8N15D8],1.1%
9,CCCCCCCCCCCCCCCNc1nc(NCCCCCCCC)nc(NCCCN2CCN(C)CC2)n1 [Compound N8N15D9],0.0%
10,CCCCCCCCCCCCCCCNc1nc(NCCCCCCCC)nc(NCC2CCN(C)CC2)n1 [Compound N8N15D10],3.2%
11,CCCCCCCCCCCCCCCCNc1nc(NCCCCCCCC)nc(NCCN(C)C)n1 [Compound N8N16D1],3.8%
12,CCCCCCCCCCCCCCCCNc1nc(NCCCCCCCC)nc(NCCN2CCOCC2)n1 [Compound N8N16D2],0.8%
13,CCCCCCCCCCCCCCCCNc1nc(NCCCCCCCC)nc(NCCN2CCCC2)n1 [Compound N8N16D3],8.5%
14,CCCCCCCCCCCCCCCCNc1nc(NCCCCCCCC)nc(NCCN2CCCCC2)n1 [Compound N8N16D4],5.3%
15,CCCCCCCCCCCCCCCCNc1nc(NCCCCCCCC)nc(NCCN2CCN(C)CC2)n1 [Compound N8N16D5],0.2%
16,CCCCCCCCCCCCCCCCNc1nc(NCCCCCCCC)nc(NCCCN(C)C)n1 [Compound N8N16D6],2.4%
17,CCCCCCCCCCCCCCCCNc1nc(NCCCCCCCC)nc(NCCN(CC)CC)n1 [Compound N8N16D7],3.1%
18,CCCCCCCCCCCCCCCCNc1nc(NCCCCCCCC)nc(NCCCN2CCOCC2)n1 [Compound N8N16D8],2.3%
19,CCCCCCCCCCCCCCCCNc1nc(NCCCCCCCC)nc(NCCCN2CCN(C)CC2)n1 [Compound N8N16D9],1.0%
20,CCCCCCCCCCCCCCCCNc1nc(NCCCCCCCC)nc(NCC2CCN(C)CC2)n1 [Compound N8N16D10],3.4%
21,CCCCCCCCCCCCCCCCCCNc1nc(NCCCCCCCC)nc(NCCN(C)C)n1 [Compound N8N18D1],1.8%

# System: HEK293 cells
# Assay: Preliminary screening as mRNA vectors, EGFP mRNA transfection of HEK293 cells
# Assay type: cell-based
# Conditions: HEK293 cells, 96-well plates, EGFP mRNA 50 ng per well; percentage of GFP fluorescent cells relative to total number of cells (Hoechst)
# In short: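 Each well of HEK293 cells received 50 ng of EGFP mRNA. Efficiency was expressed as percent GFP-expressing cells over Hoechst-defined total cell number.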
row,Compound,Absolute mRNA transfection efficiency in HEK293 cells
1,CCCCCCCCCCCNc1nc(NCCCCCCCC)nc(NCCCN2CCN(C)CC2)n1 [Compound N8N11D9],0.0%
2,CCCCCCCCCCCNc1nc(NCCCCCCCC)nc(NCC2CCN(C)CC2)n1 [Compound N8N11D10],0.2%
3,CCCCCCCCCCCCNc1nc(NCCCCCCCC)nc(NCCN(C)C)n1 [Compound N8N12D1],0.5%
4,CCCCCCCCCCCCNc1nc(NCCCCCCCC)nc(NCCN2CCOCC2)n1 [Compound N8N12D2],0.0%
5,CCCCCCCCCCCCNc1nc(NCCCCCCCC)nc(NCCN2CCCC2)n1 [Compound N8N12D3],0.5%
6,CCCCCCCCCCCCNc1nc(NCCCCCCCC)nc(NCCN2CCCCC2)n1 [Compound N8N12D4],0.0%
7,CCCCCCCCCCCCNc1nc(NCCCCCCCC)nc(NCCN2CCN(C)CC2)n1 [Compound N8N12D5],0.9%
8,CCCCCCCCCCCCNc1nc(NCCCCCCCC)nc(NCCCN(C)C)n1 [Compound N8N12D6],0.1%
9,CCCCCCCCCCCCNc1nc(NCCCCCCCC)nc(NCCN(CC)CC)n1 [Compound N8N12D7],0.0%
10,CCCCCCCCCCCCNc1nc(NCCCCCCCC)nc(NCCCN2CCOCC2)n1 [Compound N8N12D8],0.0%
11,CCCCCCCCCCCCNc1nc(NCCCCCCCC)nc(NCCCN2CCN(C)CC2)n1 [Compound N8N12D9],0.0%
12,CCCCCCCCCCCCNc1nc(NCCCCCCCC)nc(NCC2CCN(C)CC2)n1 [Compound N8N12D10],2.3%
13,CCCCCCCCCCCCCNc1nc(NCCCCCCCC)nc(NCCN(C)C)n1 [Compound N8N13D1],0.0%
14,CCCCCCCCCCCCCNc1nc(NCCCCCCCC)nc(NCCN2CCOCC2)n1 [Compound N8N13D2],0.1%
15,CCCCCCCCCCCCCNc1nc(NCCCCCCCC)nc(NCCN2CCCC2)n1 [Compound N8N13D3],2.7%
16,CCCCCCCCCCCCCNc1nc(NCCCCCCCC)nc(NCCN2CCCCC2)n1 [Compound N8N13D4],0.2%
17,CCCCCCCCCCCCCNc1nc(NCCCCCCCC)nc(NCCN2CCN(C)CC2)n1 [Compound N8N13D5],0.0%
18,CCCCCCCCCCCCCNc1nc(NCCCCCCCC)nc(NCCCN(C)C)n1 [Compound N8N13D6],0.0%
19,CCCCCCCCCCCCCNc1nc(NCCCCCCCC)nc(NCCN(CC)CC)n1 [Compound N8N13D7],0.0%
20,CCCCCCCCCCCCCNc1nc(NCCCCCCCC)nc(NCCCN2CCOCC2)n1 [Compound N8N13D8],0.2%
21,CCCCCCCCCCCCCNc1nc(NCCCCCCCC)nc(NCCCN2CCN(C)CC2)n1 [Compound N8N13D9],0.0%
22,CCCCCCCCCCCCCNc1nc(NCCCCCCCC)nc(NCC2CCN(C)CC2)n1 [Compound N8N13D10],1.9%

row,Compound,Absolute mRNA transfection efficiency in HEK293 cells
1,CCCCCCCCCCCCCCCNc1nc(NCCCCCCCC)nc(NCCN(C)C)n1 [Compound N8N15D1],0.7%
2,CCCCCCCCCCCCCCCNc1nc(NCCCCCCCC)nc(NCCN2CCOCC2)n1 [Compound N8N15D2],0.0%
3,CCCCCCCCCCCCCCCNc1nc(NCCCCCCCC)nc(NCCN2CCCC2)n1 [Compound N8N15D3],7.6%
4,CCCCCCCCCCCCCCCNc1nc(NCCCCCCCC)nc(NCCN2CCCCC2)n1 [Compound N8N15D4],0.0%
5,CCCCCCCCCCCCCCCNc1nc(NCCCCCCCC)nc(NCCN2CCN(C)CC2)n1 [Compound N8N15D5],0.2%
6,CCCCCCCCCCCCCCCNc1nc(NCCCCCCCC)nc(NCCCN(C)C)n1 [Compound N8N15D6],0.0%
7,CCCCCCCCCCCCCCCNc1nc(NCCCCCCCC)nc(NCCN(CC)CC)n1 [Compound N8N15D7],0.0%
8,CCCCCCCCCCCCCCCNc1nc(NCCCCCCCC)nc(NCCCN2CCOCC2)n1 [Compound N8N15D8],0.3%
9,CCCCCCCCCCCCCCCNc1nc(NCCCCCCCC)nc(NCCCN2CCN(C)CC2)n1 [Compound N8N15D9],0.1%
10,CCCCCCCCCCCCCCCNc1nc(NCCCCCCCC)nc(NCC2CCN(C)CC2)n1 [Compound N8N15D10],3.3%
11,CCCCCCCCCCCCCCCCNc1nc(NCCCCCCCC)nc(NCCN(C)C)n1 [Compound N8N16D1],4.6%
12,CCCCCCCCCCCCCCCCNc1nc(NCCCCCCCC)nc(NCCN2CCOCC2)n1 [Compound N8N16D2],0.2%
13,CCCCCCCCCCCCCCCCNc1nc(NCCCCCCCC)nc(NCCN2CCCC2)n1 [Compound N8N16D3],13.8%
14,CCCCCCCCCCCCCCCCNc1nc(NCCCCCCCC)nc(NCCN2CCCCC2)n1 [Compound N8N16D4],2.3%
15,CCCCCCCCCCCCCCCCNc1nc(NCCCCCCCC)nc(NCCN2CCN(C)CC2)n1 [Compound N8N16D5],0.3%
16,CCCCCCCCCCCCCCCCNc1nc(NCCCCCCCC)nc(NCCCN(C)C)n1 [Compound N8N16D6],1.5%
17,CCCCCCCCCCCCCCCCNc1nc(NCCCCCCCC)nc(NCCN(CC)CC)n1 [Compound N8N16D7],0.3%
18,CCCCCCCCCCCCCCCCNc1nc(NCCCCCCCC)nc(NCCCN2CCOCC2)n1 [Compound N8N16D8],0.2%
19,CCCCCCCCCCCCCCCCNc1nc(NCCCCCCCC)nc(NCCCN2CCN(C)CC2)n1 [Compound N8N16D9],0.5%
20,CCCCCCCCCCCCCCCCNc1nc(NCCCCCCCC)nc(NCC2CCN(C)CC2)n1 [Compound N8N16D10],1.5%
21,CCCCCCCCCCCCCCCCCCNc1nc(NCCCCCCCC)nc(NCCN(C)C)n1 [Compound N8N18D1],6.4%
